Columns and labels:
[1] = molecular target: NDM-1 (Klebsiella pneumoniae, UniProt C7C422); assay: Zn2+ restoration assay; format: biochemical
Experimental: After incubating for 20 min at 30 °C, 50 μL of the mixture was added to the 96-well plate. […] The absorbance at 300 nm was monitored for 30 min at 30 °C. Percent residual activity was calculated from the thanatin-free control.

[2] = system: NDM-1 K. pneumoniae XJ155020; assay: Antibiotic susceptibility (MIC), automated identification system; format: cell-based; conditions: Supplementary Table 2; for MIC: Klebsiella pneumoniae
Source text: (§1) Clinical isolate strains were identified and screened by the Phoenix 100 automated bacterial identification system to rapidly detect antimicrobial resistance. Total DNA was extracted by the TIANamp Bacteria DNA Kit according to the manufacturer’s protocol. The presence of blaNDM-1 was confirmed using a diagnostic kit for NDM-1 (Puruikang Bio Inc., Shenzhen, China) based on fluorescent quantitative polymerase chain reaction assay. According to the instruction, Ct values of less than 37 were considered positive.

[3] = system: NDM-1 K. pneumoniae XJ155019; assay: as above; format: cell-based; conditions: Supplementary Table 2; for MIC: Klebsiella pneumoniae
Source text: as §1

[4] = system: NDM-1 E. coli XJ141047; assay: as above; format: cell-based; conditions: Supplementary Table 1; for MIC: Escherichia coli
Source text: as §1

[5] = system: NDM-1 E. coli XJ141026; assay: as above; format: cell-based; conditions: Supplementary Table 1; for MIC: Escherichia coli
Source text: as §1

[6] = system: E. coli ATCC25922; assay: as above; format: cell-based; conditions: Supplementary Table 1; for MIC: Escherichia coli, ATCC25922
Source text: as §1

[7] = system: NDM-1 E. coli XJ141015; assay: as above; format: cell-based; conditions: Supplementary Table 1; for MIC: Escherichia coli
Source text: as §1

[8] = system: K. pneumoniae ATCC13883; assay: as above; format: cell-based; conditions: Supplementary Table 2; for MIC: Klebsiella pneumoniae, ATCC13883
Source text: as §1

[9] = system: NDM-1 K. pneumoniae XJ155018; assay: as above; format: cell-based; conditions: Supplementary Table 2; for MIC: Klebsiella pneumoniae
Source text: as §1

[10] = system: NDM-1 K. pneumoniae XJ155017; assay: as above; format: cell-based; conditions: Supplementary Table 2; for MIC: Klebsiella pneumoniae
Source text: as §1

NDM-1, sequence (C7C422 20-270, looked up, natural form): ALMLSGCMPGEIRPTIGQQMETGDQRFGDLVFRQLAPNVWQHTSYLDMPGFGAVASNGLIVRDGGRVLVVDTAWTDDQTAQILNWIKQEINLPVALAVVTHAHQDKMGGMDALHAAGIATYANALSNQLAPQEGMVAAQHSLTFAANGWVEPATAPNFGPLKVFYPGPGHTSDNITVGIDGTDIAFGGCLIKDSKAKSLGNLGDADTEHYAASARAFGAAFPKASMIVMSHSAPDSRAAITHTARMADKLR

O=S(=O)([O-])[O-].[Zn+2] [ZnSO4]
NDM-1 residual activity % ([1]; ZnSO4 0.1 μM, replicate 1): 15.22% | NDM-1 residual activity % ([1]; ZnSO4 0.1 μM, replicate 2): 16.97% | NDM-1 residual activity % ([1]; ZnSO4 0.1 μM, replicate 3): 15.04% | NDM-1 residual activity % ([1]; ZnSO4 1 μM, replicate 1): 27.47% | NDM-1 residual activity % ([1]; ZnSO4 1 μM, replicate 2): 23.22% | NDM-1 residual activity % ([1]; ZnSO4 1 μM, replicate 3): 15.46% | NDM-1 residual activity % ([1]; ZnSO4 5 μM, replicate 1): 28.32% | NDM-1 residual activity % ([1]; ZnSO4 5 μM, replicate 2): 25.17% | NDM-1 residual activity % ([1]; ZnSO4 5 μM, replicate 3): 26.96% | NDM-1 residual activity % ([1]; ZnSO4 10 μM, replicate 1): 32.34% | NDM-1 residual activity % ([1]; ZnSO4 10 μM, replicate 2): 29.63% | NDM-1 residual activity % ([1]; ZnSO4 10 μM, replicate 3): 36.06% | NDM-1 residual activity % ([1]; ZnSO4 50 μM, replicate 1): 43.28% | NDM-1 residual activity % ([1]; ZnSO4 50 μM, replicate 2): 51.47% | NDM-1 residual activity % ([1]; ZnSO4 50 μM, replicate 3): 61.34% | NDM-1 residual activity % ([1]; ZnSO4 100 μM, replicate 1): 56.06% | NDM-1 residual activity % ([1]; ZnSO4 100 μM, replicate 2): 59.92% | NDM-1 residual activity % ([1]; ZnSO4 100 μM, replicate 3): 88.19% | NDM-1 residual activity % ([1]; ZnSO4 200 μM, replicate 1): 61.18% | NDM-1 residual activity % ([1]; ZnSO4 200 μM, replicate 2): 100.32% | NDM-1 residual activity % ([1]; ZnSO4 200 μM, replicate 3): 93.90% | NDM-1 residual activity % ([1]; ZnSO4 400 μM, replicate 1): 95.69% | NDM-1 residual activity % ([1]; ZnSO4 400 μM, replicate 2): 105.75% | NDM-1 residual activity % ([1]; ZnSO4 400 μM, replicate 3): 98.26% | NDM-1 residual activity % ([1]; ZnSO4 800 μM, replicate 1): 94.91% | NDM-1 residual activity % ([1]; ZnSO4 800 μM, replicate 2): 111.23% | NDM-1 residual activity % ([1]; ZnSO4 800 μM, replicate 3): 106.26%

C[C@H]1COc2c(N3CCN(C)CC3)c(F)cc3c(=O)c(C(=O)O)cn1c23 [Levofloxacin]
MIC [2]: > 8 mg/L | susceptibility class (MIC) [2]: R | MIC [3]: > 8 mg/L | susceptibility class (MIC) [3]: R | MIC [4]: ≤ 1 mg/L | susceptibility class (MIC) [4]: S | MIC [5]: > 8 mg/L | susceptibility class (MIC) [5]: R | MIC [6]: ≤ 1 mg/L | susceptibility class (MIC) [6]: S | MIC [7]: > 8 mg/L | susceptibility class (MIC) [7]: R | MIC [8]: ≤ 1 mg/L | susceptibility class (MIC) [8]: S

Cc1nnc(SCC2=C(C(=O)O)N3C(=O)[C@@H](NC(=O)Cn4cnnn4)[C@H]3SC2)s1 [Cefazolin]
MIC [2]: > 16 mg/L | susceptibility class (MIC) [2]: R | MIC [9]: > 16 mg/L | susceptibility class (MIC) [9]: R | MIC [10]: > 16 mg/L | susceptibility class (MIC) [10]: R | MIC [3]: > 16 mg/L | susceptibility class (MIC) [3]: R | MIC [4]: > 16 mg/L | susceptibility class (MIC) [4]: R | MIC [5]: > 16 mg/L | susceptibility class (MIC) [5]: R | MIC [6]: ≤ 4 mg/L | susceptibility class (MIC) [6]: S | MIC [7]: > 16 mg/L | susceptibility class (MIC) [7]: R | MIC [8]: ≤ 4 mg/L | susceptibility class (MIC) [8]: S

O=C(N[C@H](CO)[C@H](O)c1ccc([N+](=O)[O-])cc1)C(Cl)Cl [Chloramphenicol]
MIC [2]: > 16 mg/L | susceptibility class (MIC) [2]: R | MIC [9]: > 16 mg/L | susceptibility class (MIC) [9]: R | MIC [10]: > 16 mg/L | susceptibility class (MIC) [10]: R | MIC [3]: > 16 mg/L | susceptibility class (MIC) [3]: R | MIC [4]: ≤ 4 mg/L | susceptibility class (MIC) [4]: S | MIC [5]: ≤ 4 mg/L | susceptibility class (MIC) [5]: S | MIC [6]: ≤ 4 mg/L | susceptibility class (MIC) [6]: S | MIC [7]: > 16 mg/L | susceptibility class (MIC) [7]: R | MIC [8]: ≤ 4 mg/L | susceptibility class (MIC) [8]: S

CO/N=C(\C(=O)N[C@@H]1C(=O)N2C(C(=O)[O-])=C(C[N+]3(C)CCCC3)CS[C@H]12)c1csc(N)n1 [Cefepime]
MIC [2]: > 16 mg/L | susceptibility class (MIC) [2]: R | MIC [9]: > 16 mg/L | susceptibility class (MIC) [9]: R | MIC [10]: > 16 mg/L | susceptibility class (MIC) [10]: R | MIC [3]: > 16 mg/L | susceptibility class (MIC) [3]: R | MIC [4]: > 16 mg/L | susceptibility class (MIC) [4]: R | MIC [5]: > 16 mg/L | susceptibility class (MIC) [5]: R | MIC [6]: ≤ 2 mg/L | susceptibility class (MIC) [6]: S | MIC [7]: > 16 mg/L | susceptibility class (MIC) [7]: R | MIC [8]: ≤ 2 mg/L | susceptibility class (MIC) [8]: S

Source: publication PMC6684654 (Nature Communications, 2019)
